Test results published in patent US11033607B2, “Peptides and methods for preventing ischemic tissue injury” (University Health Network, priority 2012, dated 2021).
“And” between values parts separate entries of the source, which are not always exact repeats. Identical values can stand only once.

How the values were obtained:
[1] = test system: WT mice subjected to LAD ligation; experiment: Myocardial infarction by LAD coronary artery ligation after 14-day peptide infusion, infarct size by TTC; assay type: in vivo, mouse; settings: 4 days post-MI, mean±SE
Text: After 2 weeks of continuous peptide infusion, animals were re-anesthesized with i.p ketamine/xylazine and underwent permanent ligation of the proximal left anterior descending (LAD) coronary artery to generate an experimental myocardial infarction (MI), as previously described (Ohta et al. 2004), with the surgeon blinded to treatment groups. At day 4 post-MI, animals were sacrificed and hearts excised for measurement of infarct size (FIG. 1B). This timepoint allows accurate measurement of infarct area prior to onset of cardiac rupture events (Noyan-Ashraf et al. 2005)
Freshly excised hearts were washed twice in cold PBS to remove excess blood, and cut into 2 mm sections perpendicular to the long axis. The sections were incubated at 37° C. in 2% 2,3,5-triphenyltetrazolium chloride (TTC) for 15 min, after which they were washed with PBS and fixed in 4% paraformaldehyde for 1 h before image acquisition using a digital scanner. Image J software (NIH, USA) was used to measure infarct area (TTC unstained white area) and total left ventricle (LV) area. Measurements were performed by two independent investigators blinded to treatment groups, and percent infarct size was calculated as the average of both measurements (infarct area/total LV area×100%).

isolated WT mice hearts = experiment: Ex vivo I/R injury, LVDP in presence of soluble AC inhibitor KH7 or transmembrane AC inhibitor Ddox
Method: Male, 10-12 week old, C57BI/6 mice were anesthesized with i.p ketamine (100 mg/kg)/xylazine (10 mg/kg)/heparin (1000 IU/kg), and the heart excised quickly, cannulated through the aorta, and perfused retrogradely with Kreb's Heinslet buffer in a Langendorff apparatus as previously described (Ban et al. 2008). […] A small plastic balloon connected to a pressure transducer was inflated inside the LV to measure LV end systolic (LVESP) and end diastolic pressure (LVEDP) obtained from computer analysis (AcqKnowledge 3.7.1. Biopack System, Goleta, Calif.). LVEDP was maintained at 4-8 mm Hg throughout the experiment. After 20 min of equilibration to allow the balloon to adjust inside the LV, hearts were perfused with buffer for 20 min, followed by 20 min perfusion with peptide of interest (FIG. 1a). Global ischemia was then generated by clamping inflow to the heart for 30 min, after which reperfusion was reinstated for 40 min. In the untreated control group, hearts were perfused for a total of 40 min prior to ischemia. LV developed pressure (LVDP) was calculated by subtracting LVEDP from LVESP. Functional recovery of LV function was calculated as LVDP at the end of reperfusion as a percentage of LVDP prior to ischemia.

HL-1 cells = experiment: cAMP assay in HL-1 atrial myocyte cell line; assay type: cell-based, mouse; settings: HL-1 atrial cardiomyocyte cell line, 30 nM, 10 min, IBMX 250 uM pretreatment
Method: (§1) Neonatal mouse ventricular myocytes (FIG. 9A) and atrial HL-1 myocyte cell lines (FIG. 9B) were pretreated with 250 uM IBMX for 30 min followed by treatment with GLP-1(28-36) and SCRAM(28-36) (30 nM each) or IPE and Forsk (10 uM each) or bicarbonate (25 mM) for 10 min. Cells were then lysed for measurement of cytoplasmic cAMP levels. Data represent mean±SE (n=3; triplicate wells for each replicate). After 24 h serum-deprivation, cells were pre-treated with the phosphodiesterase inhibitor IBMX (250 uM) for 30 min, after which the peptide of interest and/or vehicle PBS was added to the media to a final concentration of 30 nM for GLP-1 peptides and Exendin-4, and 10 uM for Isoproterenol and Forskolin. After 10 min drug treatment, cells were lysed and total intracellular cAMP release was measured using an enzymatic immunoassay kit (Cayman Chemicals, Mich.) as per manufacturer's protocol.

[2] = test system: primary human coronary artery smooth muscle cells (hCSMCs); experiment: cAMP assay (enzymatic immunoassay) in hCSMCs; assay type: cell-based
Method: After 24 h serum-deprivation, cells were pre-treated with the phosphodiesterase inhibitor IBMX (250 uM) for 30 min, after which the peptide of interest and/or vehicle PBS was added to the media to a final concentration of 30 nM for GLP-1 peptides and Exendin-4, and 10 uM for Isoproterenol and Forskolin. After 10 min drug treatment, cells were lysed and total intracellular cAMP release was measured using an enzymatic immunoassay kit (Cayman Chemicals, Mich.) as per manufacturer's protocol.

[3] = test system: primary ventricular cardiomyoctyes isolated from neonatal WT mice; experiment: cAMP assay in neonatal mouse ventricular myocytes; assay type: cell-based; settings: 30 nM, 10 min, IBMX 250 uM pretreatment, vs PBS or scrambled peptide
Method: as §1

[4] = test system: isolated perfused hearts of WT mice; experiment: LDH release in coronary effluents of isolated perfused hearts undergoing I/R injury; parameters: species or system mouse; settings: pretreatment 6 nmol/L, vs untreated control
Method: To further ascertain the protective actions of GLP-1(28-36)^amide, LDH release was measured in coronary effluents from the isolated perfused hearts as an indicator of cellular necrosis and death. […] Pretreatment with the GLP-1(28-36)^amide peptide therefore helps prevent cell death following an ischemic event and is useful for the treatment or prevention of ischemic tissue injury and ischemic heart disease.

[5] = test system: mouse model of ischemic stroke; experiment: Mouse model of ischemic stroke after 28 days cerebral ventricle infusion
Method: Peptides corresponding to the C-terminal domain of GLP-1 as described herein including GLP-1(28-36)^amide are tested in a mouse model of ischemic stroke. GLP-1(28-36)^amide is infused via Alzet® osmotic mini pumps brain infusion kits, specialized for targeted infusion into cerebral ventricles. After 28 days of GLP-1(28-36)^amide infusion, stroke is generated, after which brain infarct sizes are determined by TTC staining.
Protein lysates from brain tissue are extracted and the expression of survival kinases is probed by Western blots.

[6] = test system: Akt, Erk1/2, CREB and eNOS; experiment: Western blots of heart lysates from pre-treated mice; assay type: in vivo, mouse; settings: organs collected on day 18, pre-treated hearts
Text: Organs were collected on day 18 as shown in the experimental model set out in FIG. 1B and Western blots of heart lysates were processed.

[7] = 14-day pre-infusion 18.5 pmol/kg/min
[8] = with sAC inhibitor KH7 (2.4 uM)
[9] = with tmAC inhibitor Ddox (2,5 dideoxyadenosine, 12 uM)
[10] = 14-day pre-infusion 3.5 pmol/kg/min

Substance | % LV infarct size [1, 7] | LVDP at the end of reperfusion (isolated WT mice hearts; [8]) | LVDP at the end of reperfusion (isolated WT mice hearts; [9]) | % LV infarct size [1, 10] | intracellular cAMP release (HL-1 cells) | intracellular cAMP, dose dependence [2] | cAMP release in presence of tmAC inhibitor Ddox ([2]; Ddox 25 uM) | cAMP release in presence of sAC inhibitor KH7 ([2]; KH7 25 uM) | increase in cAMP release ([2]; without AC inhibitor) | cAMP response [3] | LDH release in coronary effluent [4] | brain infarct size (TTC staining) ([5]; 28 days infusion into cerebral ventricles before stroke) | expression of survival kinases in brain tissue (Western blot) ([5]; mouse, in vivo) | activation of Akt, Erk1/2, CREB and eNOS (Western blot of heart lysates) [6]
H-AGKFWRILV-NH2 [SCRAM(28-36)^amide] | 32.4±1.8% | 36.4±5.2 mmHg | 37.6±5.3 mmHg | – | – | – | – | – | – | – | – | – | – | –
H-EGTFTSDVSSYLEGQAAKEFIAWLVKGR-NH2 [GLP-1(9-36)^amide] | – | – | – | 26.1±1.4% | – | – | – | – | – | – | – | – | – | –
H-FIAWLVKGR-NH2 [GLP-1(28-36)^amide] | 24.9±2.6% and 24.9±2.4% | 25.2±1.7 mmHg | 67.6±5.8 mmHg | – | no intracellular cAMP release | dose-dependent increases in intracellular cAMP | did not prevent the increase in cAMP | abolished | 2 fold | no cAMP response was detected | significantly lower concentration of LDH | smaller infarct sizes | upregulation of survival kinases | enhanced activation of Akt, Erk1/2, CREB and eNOS
H-HAEGTFTSDVSSYLEGQAAKEFIAWLVKGR-NH2 [GLP-1(7-36)^amide] | – | 73.1±5.3 mmHg | 27.1±5.3 mmHg | 23.0±1.9% and 23.0% | – | – | – | – | – | – | – | – | – | –
